Earlier results as cited in patent publication US20200253976A1, “Endothelial Facilitation in Neurodegerative Diseases by Cerebral Blood Flow Enhancement” (UNIVERSITY OF MASSACHUSETTS, priority 2017, published 2020).
Like-named read-outs stand apart in the source and are kept apart here. Each block holds one compound with its values, some of them ahead of it.

Key:
[1] = phase 2 study
[2] = target: T1, eNOS (Homo sapiens, UniProt P29474); details: endothelial dysfunction where l-arginine is rate-limiting
T1 sequence (P29474 1-1203): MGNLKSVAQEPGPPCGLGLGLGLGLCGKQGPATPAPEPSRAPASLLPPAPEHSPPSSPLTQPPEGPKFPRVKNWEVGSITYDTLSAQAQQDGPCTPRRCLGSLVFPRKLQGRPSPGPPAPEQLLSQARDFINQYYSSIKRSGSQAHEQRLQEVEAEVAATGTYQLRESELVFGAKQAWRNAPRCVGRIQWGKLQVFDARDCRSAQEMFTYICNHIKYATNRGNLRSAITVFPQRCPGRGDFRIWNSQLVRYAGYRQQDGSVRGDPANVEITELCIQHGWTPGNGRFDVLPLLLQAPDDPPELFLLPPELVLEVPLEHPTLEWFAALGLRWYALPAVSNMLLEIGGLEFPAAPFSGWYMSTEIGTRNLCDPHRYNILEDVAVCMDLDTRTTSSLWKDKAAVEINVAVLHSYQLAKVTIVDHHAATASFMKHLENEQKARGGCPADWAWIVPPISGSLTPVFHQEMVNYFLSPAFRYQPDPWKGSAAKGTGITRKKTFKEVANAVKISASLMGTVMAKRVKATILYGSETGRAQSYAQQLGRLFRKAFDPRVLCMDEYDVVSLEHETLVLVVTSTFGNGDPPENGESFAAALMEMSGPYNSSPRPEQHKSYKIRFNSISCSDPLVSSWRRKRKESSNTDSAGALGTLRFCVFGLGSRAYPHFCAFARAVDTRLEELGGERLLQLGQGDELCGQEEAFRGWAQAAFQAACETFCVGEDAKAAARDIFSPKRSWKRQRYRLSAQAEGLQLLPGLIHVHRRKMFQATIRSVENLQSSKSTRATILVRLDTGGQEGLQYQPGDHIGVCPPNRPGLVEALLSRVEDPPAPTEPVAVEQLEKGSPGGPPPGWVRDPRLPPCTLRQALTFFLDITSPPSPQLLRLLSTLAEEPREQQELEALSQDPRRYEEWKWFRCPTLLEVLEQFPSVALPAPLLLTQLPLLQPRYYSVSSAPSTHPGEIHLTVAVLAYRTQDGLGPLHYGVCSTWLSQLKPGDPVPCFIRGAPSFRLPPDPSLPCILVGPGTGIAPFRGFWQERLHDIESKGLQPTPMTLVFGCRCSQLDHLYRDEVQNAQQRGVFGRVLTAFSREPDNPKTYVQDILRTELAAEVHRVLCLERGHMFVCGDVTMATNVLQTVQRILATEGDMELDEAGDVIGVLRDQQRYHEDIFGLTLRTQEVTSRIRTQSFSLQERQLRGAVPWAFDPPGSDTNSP

[3] = system: NOS; details: mouse ovarian follicles; L-arginine omitted
[4] = in vivo
[5] = system: treated subjects with Alzheimer's disease; details: human trial in AD, stopped prematurely
[6] = system: patients with AD

Compound: NC(=O)[C@@H](CCC(F)(F)F)N(Cc1ccc(-c2ncon2)cc1F)S(=O)(=O)c1ccc(Cl)cc1 [Avagacestat]
cognitive benefit [1]: no cognitive benefit

Compound: NC(=O)NCCC[C@H](N)C(=O)O [L-citrulline]
eNOS activity on supplementation [2]: fully restored
compensation for L-arginine withdrawal (NOS phenotype) [3]: partial compensation

Compound: NC(=NCCC[C@H](N)C(=O)O)NO [NG-hydroxy-L-arginine]
compensation for L-arginine withdrawal (NOS phenotype) [3]: partial compensation

headache, frequency (in vivo): 15%
nasal discharge, frequency (upper respiratory symptom): 11%
pain in throat, frequency (upper respiratory symptom): 10%
upper respiratory infection, frequency (upper respiratory symptom): 12-17%
Compound: C[C@H](O)[C@H](O)[C@H]1CNc2nc(N)[nH]c(=O)c2N1 [Sapropterin, tetrahydrobiopterin]
abdominal pain, frequency (gastrointestinal side effect): 5%
diarrhea, frequency (gastrointestinal side effect): 8%
nausea, frequency (gastrointestinal side effect): 4%
vomiting, frequency (gastrointestinal side effect): 8%

Compound: C[C@@H](C(=O)O)c1ccc(-c2ccccc2)c(F)c1 [Tarenflurbil]
benefit in AD [4]: failed to produce any benefit

Compound: CC(C)[C@H](O)C(=O)N[C@@H](C)C(=O)N[C@@H]1C(=O)N(C)CCc2ccccc21 [semagacestat]
cognitive performance of treated subjects versus control / placebo [5]: significantly worse cognitive performance than control subjects
cognitive performance of treated subjects versus control / placebo ([5]; listed as Semagacestat): exacerbated cognitive decline compared with placebo

Compound: AN-1792: Abeta active immunization (Elan Pharmaceuticals, Inc.)
Aβ in the brain of treated subjects ([6]; active immunization): decreased Aβ markedly
progression of dementia ([6]; active immunization, even when the amyloid plaques had been removed): failed to decrease the progression of dementia
brain atrophy on quantitative imaging versus control subjects ([6]; treated subjects with immunological response and decreased amyloid burden): greater brain atrophy
autoimmune encephalopathy ([6]; trial stopped): several subjects developed an autoimmune encephalopathy
